Laboratory results published in US11180484B2, “Pyrazole derivatives as plasma kallikrein inhibitors” (KALVISTA PHARMACEUTICALS LIMITED, priority 2016, dated 2021).
In brackets after ≈: the same amount, converted by molar mass. Read-outs that look alike come from different tables or passages of the source.

Experiments:
Human plasma kallikrein [1] = target: T1, Human plasma kallikrein (Homo sapiens (Human), UniProt P03952); experiment: Determination of the Ki for plasma kallikrein (mixed-model inhibition); assay type: biochemical; details: for Ki: human plasma kallikrein, mixed-model inhibition equation; for Alpha: parameter of the mixed-model equation indicating mechanism of inhibition
T1 sequence (P03952 391-638): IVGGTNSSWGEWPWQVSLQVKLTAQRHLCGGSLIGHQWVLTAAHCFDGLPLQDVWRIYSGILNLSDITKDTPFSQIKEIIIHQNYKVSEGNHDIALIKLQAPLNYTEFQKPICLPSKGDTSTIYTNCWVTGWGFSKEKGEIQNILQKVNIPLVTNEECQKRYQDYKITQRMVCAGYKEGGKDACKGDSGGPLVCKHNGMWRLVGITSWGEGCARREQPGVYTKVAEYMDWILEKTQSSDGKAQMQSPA
T1 sequence (P03952 20-390): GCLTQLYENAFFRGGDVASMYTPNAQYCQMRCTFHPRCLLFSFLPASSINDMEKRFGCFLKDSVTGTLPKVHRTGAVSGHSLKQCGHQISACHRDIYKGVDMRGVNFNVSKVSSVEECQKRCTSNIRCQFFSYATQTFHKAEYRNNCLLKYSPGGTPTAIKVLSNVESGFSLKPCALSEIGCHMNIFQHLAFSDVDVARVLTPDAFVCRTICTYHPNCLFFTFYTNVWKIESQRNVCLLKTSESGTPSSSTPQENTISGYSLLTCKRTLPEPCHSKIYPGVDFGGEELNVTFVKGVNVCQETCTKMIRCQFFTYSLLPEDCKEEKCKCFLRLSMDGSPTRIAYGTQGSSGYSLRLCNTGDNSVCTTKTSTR
Experimental: Plasma kallikrein inhibitory activity in vitro was determined using standard published methods (e.g. Johansen et al., Int. J. Tiss. Reac. 1986, 8, 185; Shori et al., Biochem. Pharmacol., 1992, 43, 1209; Sturzebecher et al., Biol. Chem. Hoppe-Seyler, 1992, 373, 1025). […]. Residual enzyme activity (initial rate of reaction) was determined by measuring the change in fluorescence at 410 nm. The Ki value for the test compound was determined using the mixed-model inhibition equation (based on Equation 3.2 in: RA Copeland, Evaluation of Enzyme Inhibitors in Drug Discovery, Wiley 2005) in GraphPad Prism. The mixed model equation includes competitive, uncompetitive and noncompetitive inhibition as special cases and the parameter of Alpha to indicate mechanism of inhibition.

[2] = In vitro permeability, Caco-2 model for oral absorption; assay type: in vitro ADME; details: human, apical to basolateral, 50 μM test compound, 37° C.
Experimental: In vitro permeability was determined using the Caco-2 model for oral absorption. The methodology was adapted from standard published methods (Wang Z, Hop C. E., Leung K. H. and Pang J. (2000) J Mass Spectrom 35(1); 71-76). The Caco-2 monolayers were established in a Biocoat™ HTS fibrillar collagen 24 well multiwell insert system (1.0 μm, PET membrane, Corning 354803) in which 200,000 cells were seeded into each insert and maintained over 3 days before being utilised in the permeability assay. For the assay, 50 μM test compound is added to the apical side of the inserts and incubated for 1 hour at 37° C. on a shaking platform (120 rpm). Apical to basolateral transport was determined by measuring the test article in both compartments by LCMS following the 1 hour incubation. The integrity of the Caco-2 monolayers was confirmed by two methods, (i) comparison of pre- and post-experiment transepithelial electrical resistance (TEER) and, (ii) assessment of Lucifer Yellow flux.

[3] = Plasma protein binding (PPB), rapid equilibrium dialysis, human plasma; assay type: in vitro ADME; details: 5 μM test compound, dialysis 5 hrs at 37° C.
Experimental: The fraction unbound in plasma was determined using ThermoScientific™ Pierce™ Rapid Equilibrium Dialysis Technology (Single-Use plate with inserts, 8K MWCO). […] Reference samples from the non-dialysed plasma were taken before the incubation to enable an assessment of recovery. Test compound concentrations were determined in plasma and buffer compartments by LCMS against a calibration curve. […] Results are presented as percent plasma protein bound (% PPB).

[4] = Intrinsic clearance in human liver microsomes; assay type: in vitro ADME; details: human liver microsomes 0.5 mg/mL, 5 μM test compound, 37° C.; read-out: Human liver microsome (Clint μL/min/mg protein)
Experimental: (§1) Rat or human liver microsomes (0.5 mg/mL; Corning) were incubated with 5 μM test compound at 37° C. on a shaking platform (150 rpm). Samples were taken at 0, 6, 12, 18, 24 and 60 min and test compound concentrations were determined by LCMS against a calibration curve.

Human FXIa = Human FXIa (Homo sapiens (Human), UniProt P03951); experiment: Determination of the % inhibition / IC50 for FXIa; assay type: biochemical; details: for inhibition at 40 µM: read-out: % Inhibition @ 40 μM (human FXIa); for IC50: 25° C., substrate Z-Gly-Pro-Arg-AFC
Chain of Human FXIa (P03951 388-625): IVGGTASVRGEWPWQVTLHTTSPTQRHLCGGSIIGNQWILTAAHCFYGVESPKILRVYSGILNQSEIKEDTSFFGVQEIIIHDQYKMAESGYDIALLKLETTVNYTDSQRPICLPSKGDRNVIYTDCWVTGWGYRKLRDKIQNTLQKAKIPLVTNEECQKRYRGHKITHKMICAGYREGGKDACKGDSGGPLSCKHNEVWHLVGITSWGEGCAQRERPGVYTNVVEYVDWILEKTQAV
Chain of Human FXIa (P03951 19-387): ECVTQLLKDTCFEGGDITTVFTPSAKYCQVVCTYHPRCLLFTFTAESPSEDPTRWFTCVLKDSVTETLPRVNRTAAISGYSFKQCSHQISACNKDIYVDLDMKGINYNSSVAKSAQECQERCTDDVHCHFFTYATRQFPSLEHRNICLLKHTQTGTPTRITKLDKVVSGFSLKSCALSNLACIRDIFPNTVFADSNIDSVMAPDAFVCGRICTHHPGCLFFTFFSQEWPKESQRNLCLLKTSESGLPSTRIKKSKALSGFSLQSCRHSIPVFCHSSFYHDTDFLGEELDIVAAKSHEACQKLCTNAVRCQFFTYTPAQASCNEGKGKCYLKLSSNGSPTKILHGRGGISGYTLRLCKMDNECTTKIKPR
Experimental: FXIa inhibitory activity in vitro was determined using standard published methods (see e.g. Johansen et al., Int. J. Tiss. Reac. 1986, 8, 185; Shori et al., Biochem. Pharmacol., 1992, 43, 1209; Sturzebecher et al., Biol. Chem. Hoppe-Seyler, 1992, 373, 1025). […]

[5] = Plasma protein binding (PPB), rapid equilibrium dialysis, rat plasma; assay type: in vitro ADME; details: 5 μM test compound, dialysis 5 hrs at 37° C.
Experimental: The fraction unbound in plasma was determined using ThermoScientific™ Pierce™ Rapid Equilibrium Dialysis Technology (Single-Use plate with inserts, 8K MWCO). 5 μM test compound was spiked into human or rat plasma (300 μL) and dialysed against 146.5 mM phosphate buffer (500 μL) for 5 hrs at 37° C., shaking at 1200 rpm. Reference samples from the non-dialysed plasma were taken before the incubation to enable an assessment of recovery. Test compound concentrations were determined in plasma and buffer compartments by LCMS against a calibration curve. The fraction unbound in plasma was determined using standard methodology (Waters N J et al (2008) J Pharm Sci 97(10); 4586-95). Results are presented as percent plasma protein bound (% PPB).

[6] = Intrinsic clearance in rat liver microsomes; assay type: in vitro ADME; details: rat liver microsomes 0.5 mg/mL, 5 μM test compound, 37° C.; read-out: rat liver microsome (Clint μL/min/mg protein)
Experimental: as §1

[7] = Pharmacokinetics following a single oral dose in male Sprague-Dawley rats; assay type: in vivo; details: rat, single po dose (nominal 10 mg/kg; actual dose per row in column Dose po), 10% DMSO/10% cremophor/80% SWFI, plasma
Experimental: Pharmacokinetic studies of the compounds in Table 13 were performed to assess the pharmacokinetics following a single oral dose in male Sprague-Dawley rats. Two rats were given a single po dose of 5 mL/kg of a nominal 2 mg/mL (10 mg/kg) composition of test compound in vehicle. Following dosing, blood samples were collected over a period of 24 hours. Sample times were 5, 15 and 30 minutes then 1, 2, 4, 6, 8 and 12 hours. Following collection, blood samples were centrifuged and the plasma fraction analysed for concentration of test compound by LCMS.

Human KLK1 = Human KLK1 (Homo sapiens (Human), UniProt P06870); experiment: Determination of the IC50 for KLK1; assay type: biochemical; details: 25° C., substrate H-DVal-Leu-Arg-AFC
Chain of Human KLK1 (P06870 25-262): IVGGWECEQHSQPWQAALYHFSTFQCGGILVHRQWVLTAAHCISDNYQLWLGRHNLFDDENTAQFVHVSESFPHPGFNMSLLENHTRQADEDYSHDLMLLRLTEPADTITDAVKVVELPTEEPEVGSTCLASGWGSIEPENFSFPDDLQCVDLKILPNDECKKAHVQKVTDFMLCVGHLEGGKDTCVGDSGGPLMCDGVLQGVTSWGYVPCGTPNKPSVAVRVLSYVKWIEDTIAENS
Experimental: (§2) Human KLK1 (Callbiochem) was incubated at 25° C. with the fluorogenic substrate H-DVal-Leu-Arg-AFC and various concentrations of the test compound. Residual enzyme activity (initial rate of reaction) was determined by measuring the change in […] at 410 nm and the IC50 value for the test compound was determined.

Human plasma kallikrein [8] = target: T1, Human plasma kallikrein; experiment: Determination of the IC50 for plasma kallikrein; assay type: biochemical; details: 25° C., substrate H-DPro-Phe-Arg-AFC; read-out: IC50 (human PKal)
Experimental: as §2, with “plasma kallikrein (Protogen)” for “KLK1 (Callbiochem)”, “H-DPro-Phe-Arg-AFC” for “H-DVal-Leu-Arg-AFC”

Human Factor XIIa = Human Factor XIIa (Homo sapiens (Human), UniProt P00748); experiment: Factor XIIa inhibitory activity in vitro; assay type: biochemical; details: 25° C., substrate H-DPro-Phe-Arg-AFC; read-out: IC50 (human FXIIa)
Chain of Human Factor XIIa (P00748 373-615): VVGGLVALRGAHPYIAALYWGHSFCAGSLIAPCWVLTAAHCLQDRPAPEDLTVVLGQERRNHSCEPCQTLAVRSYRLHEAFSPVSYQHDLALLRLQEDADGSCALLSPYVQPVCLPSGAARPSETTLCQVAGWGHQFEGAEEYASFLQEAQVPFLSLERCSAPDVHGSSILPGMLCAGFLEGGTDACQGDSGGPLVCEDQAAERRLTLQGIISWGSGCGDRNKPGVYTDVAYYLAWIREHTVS
Experimental: as §2, with “Factor XIIa (Enzyme Research Laboratories)” for “KLK1 (Callbiochem)”, “H-DPro-Phe-Arg-AFC” for “H-DVal-Leu-Arg-AFC”

[9] = Predicted plasma clearance (Clp), well-stirred model, rat; assay type: in vitro ADME; details: percentage of hepatic blood flow
Experimental: (§3) The predicted plasma clearance (Clp) is calculated using the well-stirred model (Rowland M, Benet L Z, and Graham G G. Clearance concepts in pharmacokinetics. J Pharmacokinet Biopharm. (1973) 1:123-136.), one of several models that can be used to extrapolate the in vitro data. The model assumes instantaneous and complete mixing of drug within the liver and is a function of intrinsic clearance, hepatic blood flow and free fraction of drug in the blood. The predicted plasma clearance in mL/min/kg is presented as a percentage of hepatic blood flow (LBF).

[10] = Predicted plasma clearance (Clp), well-stirred model, human; assay type: in vitro ADME; details: percentage of hepatic blood flow
Experimental: as §3

[11] = Solubility in water and 0.1N HCl (aq); assay type: physicochemical; details: thermodynamic from solid, incubated at 1 mg/mL, 37° C.
Experimental: Solubility was determined in water and 0.1N HCl (aq). Test compounds were incubated at 1 mg/mL for 24 hrs at 37° C. on a shaking platform (500 rpm). Samples were taken at 1, 4 and 24 hrs and centrifuged at 15,000 g for 10 min. Test compound concentration in the supernatant was determined by LCMS against a standard curve.

thrombin = thrombin (Homo sapiens (Human), UniProt P00734); experiment: Determination of enzyme selectivity: thrombin; assay type: biochemical; details: substrate at Km concentration
Experimental: (§4) Human serine protease enzymes plasmin, thrombin and trypsin were assayed for enzymatic activity using an appropriate fluorogenic substrate. Protease activity was measured by monitoring the accumulation of liberated fluorescence from the substrate over 5 minutes. The linear rate of fluorescence increase per minute was expressed as percentage (%) activity. The Km for the cleavage of each substrate was determined by standard transformation of the Michaelis-Menten equation.

trypsin = experiment: Determination of enzyme selectivity: trypsin; assay type: biochemical, human; details: substrate at Km concentration
plasmin = plasmin (Homo sapiens (Human), UniProt P00747); experiment: Determination of enzyme selectivity: plasmin; assay type: biochemical; details: substrate at Km concentration
Chain of plasmin (P00747 581-810): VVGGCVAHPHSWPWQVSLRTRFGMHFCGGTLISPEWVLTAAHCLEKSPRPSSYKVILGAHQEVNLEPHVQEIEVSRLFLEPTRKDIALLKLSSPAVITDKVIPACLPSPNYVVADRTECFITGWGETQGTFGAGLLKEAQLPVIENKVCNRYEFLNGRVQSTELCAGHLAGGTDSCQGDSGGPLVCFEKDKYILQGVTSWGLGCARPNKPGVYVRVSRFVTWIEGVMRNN
Chain of plasmin (P00747 97-580): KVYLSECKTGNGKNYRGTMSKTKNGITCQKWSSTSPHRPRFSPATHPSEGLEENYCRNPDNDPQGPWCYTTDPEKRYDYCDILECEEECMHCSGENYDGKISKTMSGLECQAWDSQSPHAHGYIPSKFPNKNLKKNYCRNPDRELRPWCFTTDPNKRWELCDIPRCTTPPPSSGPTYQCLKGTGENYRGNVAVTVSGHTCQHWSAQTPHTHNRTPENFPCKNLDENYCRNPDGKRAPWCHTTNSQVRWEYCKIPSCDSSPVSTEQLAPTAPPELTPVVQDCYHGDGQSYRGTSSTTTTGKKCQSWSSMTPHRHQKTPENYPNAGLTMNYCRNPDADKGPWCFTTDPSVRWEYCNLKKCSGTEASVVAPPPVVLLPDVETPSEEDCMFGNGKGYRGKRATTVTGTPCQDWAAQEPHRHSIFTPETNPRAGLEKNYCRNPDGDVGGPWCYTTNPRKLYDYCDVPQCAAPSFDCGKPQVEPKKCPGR
Experimental: as §4

[12] = simulated gastric fluid, 0.1N HCl (aq), read-out: Solubility 0.1N HCl (aq)
[13] = water, read-out: Solubility Water

SMILES | Ki (Human plasma kallikrein [1]) [µM] | Alpha (Human plasma kallikrein [1]) | Papp at 1 h, 50 μM [2] [nm/s] | fraction unbound at 5 h, 5 μM [3] | microsomal CLint at 5 μM [4] [µL/min/mg] | inhibition at 40 µM (Human FXIa; 40 μM test compound) [%] | IC50 (Human FXIa) [µM] | fraction unbound at 5 h, 5 μM [5] | microsomal CLint at 5 μM [6] [µL/min/mg] | Cmax [7] [µg/mL] | Tmax [7] [h] | IC50 (Human KLK1) [µM] | IC50 (Human plasma kallikrein [8]) [µM] | IC50 (Human Factor XIIa) [µM] | Predicted in vivo rat Clp (% LBF) [9] [% LBF] | Predicted in vivo human Clp (% LBF) [10] [% LBF] | solubility [11, 12] [mg/mL] | solubility [11, 13] [mg/mL] | also measured
COCc1nn(Cc2ccc(N3CCCC3)nc2)cc1C(=O)NCc1c(-n2cnnn2)ccc(OC)c1F [Example 77, N-{[2-fluoro-3-methoxy-6-(1,2,3,4-tetrazol-1-yl)phenyl]methyl}-3-(methoxymethyl)-1-{[6-(pyrrolidin-1-yl)pyridin-3-yl]methyl}pyrazole-4-carboxamide] | 0.00017 | 4.2 | 280 | 0.03 | 29 | 100 | 0.235 | < 0.01 | 82 | 0.845 | 1.5 | > 40 | 0.0014 | > 40 | <2.0 | 3 |  |  | 
COCc1nn(Cc2ccc(Cn3ccccc3=O)cc2)cc1C(=O)NCc1ccccc1-n1cnnn1 [Example 74, 3-(methoxymethyl)-1-({4-[(2-oxopyridin-1-yl)methyl]phenyl}methyl)-N-{[2-(1,2,3,4-tetrazol-1-yl)phenyl]methyl}pyrazole-4-carboxamide] |  |  | 20 |  |  | 8 | > 40 |  |  |  |  | > 40 | 0.0176 | > 40 |  |  |  |  | IC50 (thrombin): > 40 µM; IC50 (trypsin): > 40 µM; IC50 (plasmin): > 40 µM
COCc1nn(Cc2ccc(Cn3ccccc3=O)cc2)cc1C(=O)NCc1nccc(OC)c1C [Example 22, N-[(4-methoxy-3-methylpyridin-2-yl)methyl]-3-(methoxymethyl)-1-({4-[(2-oxopyridin-1-yl)methyl]phenyl}methyl)pyrazole-4-carboxamide] | 0.0019 | 29 |  | 0.08 |  |  | > 40 | < 0.01 | 68 | 1.02 | 1 | > 40 | 0.0049 | > 40 | <1.6 | 7 | 0.9 (≈ 1850 µM) | 0.06 (≈ 123 µM) | inhibition at 40 µM (Human FXIa): 5%

Now from value to compound, other results behind:

Ki (Human plasma kallikrein [1]) [µM] | Alpha (Human plasma kallikrein [1]) | Papp at 1 h, 50 μM [2] [nm/s] | fraction unbound at 5 h, 5 μM [3] | microsomal CLint at 5 μM [4] [µL/min/mg] | inhibition at 40 µM (Human FXIa; 40 μM test compound) [%] | IC50 (Human FXIa) [µM] | fraction unbound at 5 h, 5 μM [5] | microsomal CLint at 5 μM [6] [µL/min/mg] | Cmax [7] [µg/mL] | Tmax [7] [h] | IC50 (Human KLK1) [µM] | IC50 (Human plasma kallikrein [8]) [µM] | IC50 (Human Factor XIIa) [µM] | Predicted in vivo rat Clp (% LBF) [9] [% LBF] | Predicted in vivo human Clp (% LBF) [10] [% LBF] | SMILES | solubility [11, 12] [mg/mL] | solubility [11, 13] [mg/mL] | also measured
0.00028 | 2.78 | 160 | 0.1 | 4 | 99 | 0.477 | 0.03 | 35 | 0.981 | 0.5 | > 40 | 0.0017 | > 40 | 3 | 2 | COCc1nn(Cc2cnc(N3CCC(F)(F)C3)nc2)cc1C(=O)NCc1c(-n2cnnn2)ccc(OC)c1F [Example 86, 1-{[2-(3,3-Difluoropyrrolidin-1-yl)pyrimidin-5-yl]methyl}-N-{[2-fluoro-3-methoxy-6-(1,2,3,4-tetrazol-1-yl)phenyl]methyl}-3-(methoxymethyl)pyrazole-4-carboxamide] | 0.05 (≈ 89.5 µM) | 0.001 (≈ 1.79 µM) | 
0.0024 | 14.8 | 230 | 0.08 | 14 |  | 0.779 | 0.04 | 54 |  |  | > 4 | 0.0106 | > 4 | 6 | 4 | COCc1nn(Cc2cnc(N3CCCC3)nc2)cc1C(=O)NCc1cc(OC)ccc1-n1cnnn1 [Example 80, N-{[5-methoxy-2-(1,2,3,4-tetrazol-1-yl)phenyl]methyl}-3-(methoxymethyl)-1-{[2-(pyrrolidin-1-yl)pyrimidin-5-yl]methyl}pyrazole-4-carboxamide] |  |  | 
